How the values were obtained:
Assay type in all cases: in vitro ADME, rabbit
[1] = Ex vivo iontophoretic delivery of Nile Blue A dye through the cornea from a drug loaded contact lens (camera and confocal imaging)
Source text: Materials: Mature cadaver rabbit eyes were purchased from Pel-Freez Biologicals (Rogers, AR). The Nile Blue A dye was purchased from Sigma-Aldrich (St. Louis, MO) with a 75% dye content. Electrode materials were either made from generic lead-free, silver bearing solder or was 3D printed with conductive PLA filament (Proto Pasta, Vancouver, WA). Cadaver rabbit eyes were fixed in Margo solution containing paraformaldehyde and glutaraldehyde purchased from Fisher Scientific (Hampton, NH). Soaking agents for lenses included phosphate buffered saline (PBS), 1 M HEPES, a HEPES buffer solution containing sodium chloride, calcium chloride, magnesium chloride, and potassium phosphate were all purchased from Fisher Scientific (Hampton, NH). Commercial contact lenses Acuvue Oasys (14 mm diameter, 8.4 mm base curve, 0.0 power) were used in the study.
Lens Preparation: Contact lenses were loaded by soaking in a Nile Blue A dye solution (1 mg/mL) in DI water for two days. To investigate the effect of buffer, lenses were soaked in either pure HEPES or HEPES buffer for 10 minutes prior to placement on the cadaver eyes. The molecular weight of HEPES is 238 allowing rapid uptake by the contact lenses. […]
In order to quantify drug delivery, diffusion efficacy was measured by simultaneous comparison of four separate eyes, each corresponding to a different condition. […]

[2] = Ex vivo iontophoretic delivery of Nile Blue to the posterior eye segment (confocal microscopy)
Source text: (§1) Materials: Mature cadaver rabbit eyes were purchased from Pel-Freez Biologicals (Rogers, AR). The Nile Blue A dye (75% dye content) and Fluorescein were purchased from Sigma-Aldrich (St. Louis, MO). Electrode materials were made 3D printed with conductive PLA filament (Proto Pasta, Vancouver, WA). Cadaver rabbit eyes were fixed in Margo solution containing paraformaldehyde and glutaraldehyde purchased from Fisher Scientific (Hampton, NH). Soaking agents for lenses included phosphate buffered saline (PBS) or a HEPES solution purchased from Fisher Scientific (Hampton, NH). Commercial contact lenses Acuvue Oasys (14 mm diameter, 8.4 mm base curve, 0.0 power) were used in the study.
(§2) Lens Preparation: Contact lenses were loaded by soaking in a 1 mg/mL Nile Blue solution in PBS or in a 0.01 mg/mL fluorescein solution in HEPES overnight. Lenses were loaded overnight in an enclosed space to prevent photobleaching of any species. […] Both species have low molecular weights and therefore have rapid uptakes into the lenses.
Application of Electric Field: Loaded contact lenses were placed at the periphery of the cornea, on the sclera, and the two electrodes were placed over the lenses. Electrodes were attached to a power source that was set to the desired current (FIG. 8). A syringe pump was configured to gently apply a drop of PBS (≈30 μL) every 30 seconds on to the cornea and would flow to the lenses, providing a thin film to keep them hydrated. The application of PBS also served as an approximate mimic of the in vivo tear film. The submersion of the lens was also crucial to ensure that if any bubbling from electrochemically generated gases were to occur, it would be easily visible. The field was applied for the desired duration and then the power source and lenses were removed. Experiments were conducted with the lenses soaked in PBS for the anode component and HEPES for the cathode. The Nile Blue and fluorescein experiments were each conducted with three different combinations of time and current. […]

[3] = Ex vivo iontophoretic delivery of fluorescein to the posterior eye segment, quantified in the vitreous by fluorometer; conditions: for Flux (time averaged): calculated from final concentration in the vitreous; for Concentration in Vitreous: lens loaded with 0.01 mg/mL fluorescein in HEPES; for electrophoretic velocity from the data of Table 3: order of magnitude
Source text: as §1, §2
Application of Electric Field: Loaded contact lenses were placed at the periphery of the cornea, on the sclera, and the two electrodes were placed over the lenses. Electrodes were attached to a power source that was set to the desired current (FIG. 8). A syringe pump was configured to gently apply a drop of PBS (≈30 μL) every 30 seconds on to the cornea and would flow to the lenses, providing a thin film to keep them hydrated. The application of PBS also served as an approximate mimic of the in vivo tear film. The submersion of the lens was also crucial to ensure that if any bubbling from electrochemically generated gases were to occur, it would be easily visible. The field was applied for the desired duration and then the power source and lenses were removed. Experiments were conducted with the lenses soaked in PBS for the anode component and HEPES for the cathode. The Nile Blue and fluorescein experiments were each conducted with three different combinations of time and current.
Quantification of Fluorescein Delivery: Delivery of fluorescein to the posterior eye segment was conducted four times for each variation of time and current. After completion, eyes were submerged in PBS for 1 hour and then refrozen. Once the eyes had completely solidified, the vitreous was removed by cutting away the rest of the eye. All samples of same time and current were combined and thawed. After thawing was complete, the vitreous was put through a 0.22 μm filter to ensure no excessive tissue was present in the system. Relative fluorescent intensity of each sample was found using a Quantech fluorometer and the corresponding concentrations of fluorescein was found through a calibration curve.
Efficient transport of fluorescein to the vitreous: The fluorescein was loaded into lenses in a HEPES solution, which alleviated the damage done to the eye during the generation of caustic species from the electrochemical reactions. In order to quantify the delivery of fluorescein to the posterior eye segment, experiments were conducted at three different combinations or time and current and were compared to a control. The electric fields chosen were 0.25 mA (high current) and 0.125 mA (low current) for either 1 hour (short time) or 2 hours (long time). After the application of the electric field to the sclera, the vitreous was harvested and fluorescence was quantified using a fluorometer. The concentrations of fluorescein were found using a calibration curve for the relative fluorescence (Table 3). Additionally in FIGS. 11A-11B, the delivery and localization of fluorescein can be seen in the posterior eye segment. Fluorescence was produced using a UV light source and observed thorough an orange filter. The regions near the cathode component show localizations of fluorescein at the exterior and interior surfaces. The final concentration in the vitreous was also used to calculate the time averaged flux of the fluorescein and the electrophoretic mobility. […]

Row | Structure (SMILES) | Nile Blue A dye present throughout the cornea (confocal) ([1]; diffusion only, no electric field, from contact lens or standing solution, after 1 hr) | Nile Blue A dye delivered to the cornea (ROI analysis) ([1]; lenses loaded in DI water, all current and time conditions (0.25 or 0.125 mA, 30 or 60 min)) | distribution of Nile Blue A dye across sclera, choroid, and retina ([2]; all applied currents and times) | damage to the posterior eye segment (confocal imaging) ([2]; hybrid lenses: PBS at anode, HEPES at cathode) | transport of Nile Blue A dye across sclera, choroid, and retina (confocal) ([2]; low current and short time duration) | Flux (time averaged) ([3]; 1 hr 0.125 mA) | Concentration in Vitreous ([3]; 1 hr 0.125 mA) [ng/mL] | Flux (time averaged) ([3]; 1 hr 0.250 mA) | Concentration in Vitreous ([3]; 1 hr 0.250 mA) [ng/mL] | Flux (time averaged) ([3]; 2 hr 0.125 mA) | Concentration in Vitreous ([3]; 2 hr 0.125 mA) [ng/mL] | electrophoretic velocity from the data of Table 3 ([3]; high current (0.25 mA) experiments) [μm/s] | electrophoretic velocity from the data of Table 3 ([3]; low current (0.125 mA) experiments) [μm/s]
1 | CC[N+](CC)=c1ccc2nc3c(cc(N)c4ccccc43)oc-2c1 [Nile Blue A dye] | very minor amounts | significant quantities | uniform | no apparent damage | sufficient transport | – | – | – | – | – | – | – | –
2 | O=C1OC2(c3ccc(O)cc3Oc3cc(O)ccc32)c2ccccc21 [Fluorescein] | – | – | – | – | – | 7.18 kg/m^2s [×10^7] | 33.8 | 14.93 kg/m^2s [×10^7] | 70.4 | 6.46 kg/m^2s [×10^7] | 60.9 | ~2.6 | ~1.3
